Test results from article PMC6199744, “Development of Chemical Proteomics for the Folateome and Analysis of the Kinetoplastid Folateome” (ACS Infectious Diseases, 2018).
Like-named read-outs stand apart in the source and are kept apart here.

Tests used:
DHFR-TS [1] = molecular target: DHFR-TS (Leishmania major, UniProt P07382); experiment: biochemical; conditions: competing free ligand 100 μM; bead = immobilized compound of the row; L. major lysate; read-out: % Inhibition of protein binding to bead, DHFR-TS, L. major
TB427.04.1870 = experiment: Multitargeted bead mixture competition; assay type: binding; conditions: free ligand 100 μM, T. brucei lysate
[2] = system: PHOSPHATIDYLINOSITOL-4-PHOSPHATE 5-KINASE, PUTATIV (TB427.10.3890); experiment: Multitargeted bead mixture competition; assay type: binding; conditions: free ligand 100 μM, T. brucei lysate
TB927.8.6760 = experiment: Multitargeted bead mixture competition; assay type: binding; conditions: free ligand 100 μM, T. brucei lysate
[3] = molecular target: T. brucei lysate proteins (Trypanosoma brucei brucei, UniProt P38973); assay type: binding; conditions: protein TB427.10.1070 CELL DIVISION PROTEIN KINASE 2 HOMOLOG 1 (CRK1)
[4] = system: SUCCINYL-COA SYNTHETASE ALPHA SUBUNIT, PUTATIVE (Tb427.03.2230); experiment: Multitargeted bead mixture competition; assay type: binding; conditions: free ligand 100 μM, T. brucei lysate
[5] = molecular target: T1, HeLa cell extract proteins (Homo sapiens, UniProt Q9Y5M8); assay type: binding; conditions: captured protein SRPRB; HeLa
T1 construct: endogenous in cells; host or cells: HeLa cell extract
T1 sequence (Q9Y5M8 1-271): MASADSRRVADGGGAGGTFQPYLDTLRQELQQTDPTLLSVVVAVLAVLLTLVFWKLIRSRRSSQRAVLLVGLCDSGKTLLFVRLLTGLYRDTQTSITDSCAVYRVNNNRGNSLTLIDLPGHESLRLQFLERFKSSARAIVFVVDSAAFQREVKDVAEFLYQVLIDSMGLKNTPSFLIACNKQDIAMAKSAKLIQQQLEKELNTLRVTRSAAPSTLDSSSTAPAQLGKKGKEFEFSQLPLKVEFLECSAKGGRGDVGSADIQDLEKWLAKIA

[6] = molecular target: T2, HeLa cell extract proteins (Homo sapiens, UniProt P04004); assay type: binding; conditions: HeLa; protein VTN
T2 construct: endogenous in cells; host or cells: HeLa cell extract
T2 sequence (P04004 20-478): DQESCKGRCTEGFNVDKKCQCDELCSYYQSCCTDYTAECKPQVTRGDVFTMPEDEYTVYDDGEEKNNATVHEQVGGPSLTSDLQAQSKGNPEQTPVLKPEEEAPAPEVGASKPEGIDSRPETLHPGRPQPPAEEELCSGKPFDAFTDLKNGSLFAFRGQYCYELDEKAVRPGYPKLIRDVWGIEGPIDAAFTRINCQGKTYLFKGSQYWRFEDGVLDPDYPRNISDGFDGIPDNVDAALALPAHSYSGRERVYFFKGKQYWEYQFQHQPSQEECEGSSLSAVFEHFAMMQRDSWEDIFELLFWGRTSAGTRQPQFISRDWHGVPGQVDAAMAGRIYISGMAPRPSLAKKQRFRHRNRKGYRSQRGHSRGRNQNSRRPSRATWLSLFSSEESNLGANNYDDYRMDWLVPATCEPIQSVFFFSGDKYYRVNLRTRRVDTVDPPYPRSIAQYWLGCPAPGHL

[7] = system: ACETYLTRANSFERASE, PUTATIVE (Tb427.08.3310); experiment: Multitargeted bead mixture competition; assay type: binding; conditions: free ligand 100 μM, T. brucei lysate
PTR-1 = PTR-1 (Trypanosoma brucei brucei, UniProt O76290); experiment: Individual bead pull down with competing free ligand; conditions: competing free ligand 100 μM; bead = immobilized compound of the row; T. brucei lysate; read-out: % Inhibition of protein binding to bead, PTR-1, T. brucei
Excerpt: (§1) Antifolate compounds were immobilized onto NHS-activated sepharose beads/reverse sepharose beads through amide coupling via either an amino or carboxyl group (see Figure 3). The reaction was monitored by observing the disappearance of test compound by LCMS, after which the unreacted coupling sites were capped with NHS-acetate or aminoethanol.
(§2) Folate metabolizing enzymes are not highly abundant proteins,[19],[20] potentially making their identification by MS difficult. Beads will not only pull down the low abundant high affinity binders but also attract highly abundant, low affinity binders or so-called nonspecific binders. Sometimes, the nonspecific high abundant proteins can mask true binders. The target identification approach used in this study overcomes this issue by performing competition studies. Various concentrations of the free unmodified inhibitor (test compound) were preincubated with the lysate, prior to addition of the beads derivatized with immobilized compounds. Following washing of the bound proteins from the beads and tryptic digest, the peptides were labeled using the TMTs and then pooled. Differences in peptide abundance were analyzed by fragmentation of the isotope-coded isobaric tags in the MS/MS spectra (Figure 5).[9],[11],[12],[21] While the competition experiments with test compound confirm specific binding, it is also possible that some proteins will have a stronger binding interaction with the derivatized beads than the competing test compound, due to subtle differences in the interactions between the immobilized compound and the test compound with the target protein.

DHFR-TS [8] = molecular target: DHFR-TS (Trypanosoma brucei brucei, UniProt Q27783); experiment: as above; conditions: competing free ligand 100 μM; bead = immobilized compound of the row; T. brucei lysate; read-out: % Inhibition of protein binding to bead, DHFR-TS, T. brucei
Excerpt: as §1, §2

[9] = system: HYPOTHETICAL PROTEIN, CONSERVED (Tb427.10.6100); experiment: Multitargeted bead mixture competition; assay type: binding; conditions: free ligand 100 μM, T. brucei lysate
[10] = system: BRANCHED-CHAIN AMINO ACID AMINOTRANSFERASE, PUTATI (TB427.02.4590); experiment: Multitargeted bead mixture competition; assay type: binding; conditions: free ligand 100 μM, T. brucei lysate
[11] = system: HYPOTHETICAL PROTEIN, CONSERVED (TB427.03.2670); experiment: Multitargeted bead mixture competition; assay type: binding; conditions: free ligand 100 μM, T. brucei lysate
TbDHFR = conditions: direct enzyme assays; cited from earlier work
[12] = molecular target: T. brucei lysate proteins (Trypanosoma brucei brucei, UniProt P12861); assay type: binding
[13] = molecular target: T. brucei lysate proteins (Trypanosoma brucei brucei, UniProt Q04933); assay type: binding
[14] = molecular target: T. brucei lysate proteins (Trypanosoma brucei brucei, UniProt P07752); assay type: binding
[15] = molecular target: T. brucei lysate proteins (Trypanosoma brucei brucei, UniProt P13377); assay type: binding
[16] = molecular target: T3, HeLa cell extract proteins (Homo sapiens, UniProt Q9Y6G9); assay type: binding
T3 construct: endogenous in cells; host or cells: HeLa cell extract

[17] = molecular target: T4, HeLa cell extract proteins (Homo sapiens, UniProt Q9H4A4); assay type: binding
T4 construct: endogenous in cells; host or cells: HeLa cell extract

[18] = protein TB427.10.10980 HEAT SHOCK PROTEIN 83, vehicle control = 1
[19] = protein TB427TMP.01.8470 DIHYDROLIPOYL DEHYDROGENASE, vehicle control = 1
[20] = protein TB927.10.5620 FRUCTOSE-BI[…], GLYCOSOMAL, vehicle control = 1
[21] = protein TB427.01.3830 GLUCOSE-6-PHOSPHATE ISOMERASE, GLYCOSOMAL, vehicle control = 1

Chain of T. brucei lysate proteins (Trypanosoma brucei brucei, UniProt P07752) (P07752 whole entry): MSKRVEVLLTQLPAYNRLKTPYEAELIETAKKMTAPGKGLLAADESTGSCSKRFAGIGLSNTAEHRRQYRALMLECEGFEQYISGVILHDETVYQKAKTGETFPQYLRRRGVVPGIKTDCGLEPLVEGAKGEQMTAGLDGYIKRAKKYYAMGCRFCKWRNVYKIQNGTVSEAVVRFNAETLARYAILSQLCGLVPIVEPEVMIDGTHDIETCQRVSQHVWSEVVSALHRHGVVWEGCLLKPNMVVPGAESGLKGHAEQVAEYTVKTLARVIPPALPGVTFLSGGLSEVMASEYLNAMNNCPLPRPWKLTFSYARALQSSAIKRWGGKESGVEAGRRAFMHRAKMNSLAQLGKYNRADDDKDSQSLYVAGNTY
Chain of T. brucei lysate proteins (Trypanosoma brucei brucei, UniProt Q04933) (Q04933 whole entry): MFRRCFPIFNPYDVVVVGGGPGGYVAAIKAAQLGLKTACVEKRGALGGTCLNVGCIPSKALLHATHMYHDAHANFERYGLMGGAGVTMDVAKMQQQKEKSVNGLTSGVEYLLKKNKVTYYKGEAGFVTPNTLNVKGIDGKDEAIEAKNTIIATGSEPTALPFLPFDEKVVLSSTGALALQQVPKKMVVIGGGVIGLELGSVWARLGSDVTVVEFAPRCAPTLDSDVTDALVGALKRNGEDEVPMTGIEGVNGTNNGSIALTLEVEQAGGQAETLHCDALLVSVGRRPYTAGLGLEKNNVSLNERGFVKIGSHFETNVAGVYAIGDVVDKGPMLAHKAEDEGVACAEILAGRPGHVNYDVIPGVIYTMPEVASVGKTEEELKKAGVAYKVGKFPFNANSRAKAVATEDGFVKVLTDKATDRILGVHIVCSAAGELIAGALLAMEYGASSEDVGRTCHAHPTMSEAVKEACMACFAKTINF
T4 sequence (Q9H4A4 whole entry): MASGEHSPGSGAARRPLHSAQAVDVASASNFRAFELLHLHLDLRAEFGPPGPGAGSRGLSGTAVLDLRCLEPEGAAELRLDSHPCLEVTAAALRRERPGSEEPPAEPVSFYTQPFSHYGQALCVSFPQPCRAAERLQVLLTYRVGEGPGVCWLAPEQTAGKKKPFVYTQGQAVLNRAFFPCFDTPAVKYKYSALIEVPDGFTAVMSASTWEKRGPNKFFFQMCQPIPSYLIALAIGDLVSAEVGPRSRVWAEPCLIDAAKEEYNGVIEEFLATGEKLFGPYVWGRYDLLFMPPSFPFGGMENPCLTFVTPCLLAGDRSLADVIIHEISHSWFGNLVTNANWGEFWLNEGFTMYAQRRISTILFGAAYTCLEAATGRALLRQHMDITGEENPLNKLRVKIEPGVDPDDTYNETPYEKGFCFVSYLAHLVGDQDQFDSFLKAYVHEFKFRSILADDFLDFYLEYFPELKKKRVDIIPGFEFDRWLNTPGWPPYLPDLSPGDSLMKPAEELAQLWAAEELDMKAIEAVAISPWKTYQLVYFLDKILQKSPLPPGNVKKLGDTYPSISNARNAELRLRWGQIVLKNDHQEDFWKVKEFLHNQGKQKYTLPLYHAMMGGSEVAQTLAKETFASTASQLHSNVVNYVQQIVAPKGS
Chain of DHFR-TS (Leishmania major, UniProt P07382) (P07382 whole entry): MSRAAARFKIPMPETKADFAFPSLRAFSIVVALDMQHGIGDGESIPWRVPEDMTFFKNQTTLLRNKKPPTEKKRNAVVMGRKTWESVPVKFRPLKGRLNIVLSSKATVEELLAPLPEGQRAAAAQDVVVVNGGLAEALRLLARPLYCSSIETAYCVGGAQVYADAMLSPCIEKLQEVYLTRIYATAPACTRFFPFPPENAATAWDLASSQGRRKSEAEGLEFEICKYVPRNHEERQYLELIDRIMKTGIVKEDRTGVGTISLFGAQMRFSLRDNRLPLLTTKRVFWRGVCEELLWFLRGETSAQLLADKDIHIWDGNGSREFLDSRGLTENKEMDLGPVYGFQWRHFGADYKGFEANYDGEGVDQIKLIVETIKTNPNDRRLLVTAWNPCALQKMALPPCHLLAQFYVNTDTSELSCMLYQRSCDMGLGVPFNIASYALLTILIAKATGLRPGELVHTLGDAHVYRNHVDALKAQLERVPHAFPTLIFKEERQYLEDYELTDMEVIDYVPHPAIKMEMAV
Chain of T. brucei lysate proteins (Trypanosoma brucei brucei, UniProt P38973) (P38973 whole entry): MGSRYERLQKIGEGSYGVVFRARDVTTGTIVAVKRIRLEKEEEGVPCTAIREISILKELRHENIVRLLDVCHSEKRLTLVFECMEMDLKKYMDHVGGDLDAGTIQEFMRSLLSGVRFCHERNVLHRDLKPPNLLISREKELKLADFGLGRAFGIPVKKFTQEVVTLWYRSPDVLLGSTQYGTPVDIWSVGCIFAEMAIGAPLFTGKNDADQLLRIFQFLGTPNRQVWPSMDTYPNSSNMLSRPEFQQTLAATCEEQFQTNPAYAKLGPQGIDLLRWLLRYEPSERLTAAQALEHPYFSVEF
T3 sequence (Q9Y6G9 whole entry): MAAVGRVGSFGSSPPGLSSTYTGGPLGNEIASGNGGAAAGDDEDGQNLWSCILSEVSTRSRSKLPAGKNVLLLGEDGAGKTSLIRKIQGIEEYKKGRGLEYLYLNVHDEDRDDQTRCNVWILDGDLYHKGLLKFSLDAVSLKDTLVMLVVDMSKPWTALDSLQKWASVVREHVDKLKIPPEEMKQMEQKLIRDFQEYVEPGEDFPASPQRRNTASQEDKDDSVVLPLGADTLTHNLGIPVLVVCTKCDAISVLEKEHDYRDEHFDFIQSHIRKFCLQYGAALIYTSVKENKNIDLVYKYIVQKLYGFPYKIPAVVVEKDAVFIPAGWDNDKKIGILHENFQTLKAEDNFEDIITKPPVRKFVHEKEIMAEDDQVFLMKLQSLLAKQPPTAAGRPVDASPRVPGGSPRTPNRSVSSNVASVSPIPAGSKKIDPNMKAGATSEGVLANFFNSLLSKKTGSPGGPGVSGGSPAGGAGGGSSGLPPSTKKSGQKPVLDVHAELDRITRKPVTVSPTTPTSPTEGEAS
Chain of T. brucei lysate proteins (Trypanosoma brucei brucei, UniProt P13377) (P13377 whole entry): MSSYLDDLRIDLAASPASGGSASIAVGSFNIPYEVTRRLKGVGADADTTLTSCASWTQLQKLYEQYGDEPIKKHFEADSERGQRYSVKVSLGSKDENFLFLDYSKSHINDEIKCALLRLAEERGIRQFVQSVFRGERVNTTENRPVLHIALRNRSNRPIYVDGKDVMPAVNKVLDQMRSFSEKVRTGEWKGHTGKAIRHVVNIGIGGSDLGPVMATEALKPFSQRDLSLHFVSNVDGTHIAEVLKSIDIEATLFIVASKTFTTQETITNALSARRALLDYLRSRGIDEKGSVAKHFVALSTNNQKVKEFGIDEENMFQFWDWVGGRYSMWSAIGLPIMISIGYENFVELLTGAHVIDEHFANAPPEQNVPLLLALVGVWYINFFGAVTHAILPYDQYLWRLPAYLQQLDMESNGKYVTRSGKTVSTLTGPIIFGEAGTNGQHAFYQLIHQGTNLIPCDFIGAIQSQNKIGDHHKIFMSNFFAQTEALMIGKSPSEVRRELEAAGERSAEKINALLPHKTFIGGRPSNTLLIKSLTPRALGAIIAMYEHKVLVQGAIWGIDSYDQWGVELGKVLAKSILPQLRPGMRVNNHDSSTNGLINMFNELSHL
Chain of T. brucei lysate proteins (Trypanosoma brucei brucei, UniProt P12861) (P12861 whole entry): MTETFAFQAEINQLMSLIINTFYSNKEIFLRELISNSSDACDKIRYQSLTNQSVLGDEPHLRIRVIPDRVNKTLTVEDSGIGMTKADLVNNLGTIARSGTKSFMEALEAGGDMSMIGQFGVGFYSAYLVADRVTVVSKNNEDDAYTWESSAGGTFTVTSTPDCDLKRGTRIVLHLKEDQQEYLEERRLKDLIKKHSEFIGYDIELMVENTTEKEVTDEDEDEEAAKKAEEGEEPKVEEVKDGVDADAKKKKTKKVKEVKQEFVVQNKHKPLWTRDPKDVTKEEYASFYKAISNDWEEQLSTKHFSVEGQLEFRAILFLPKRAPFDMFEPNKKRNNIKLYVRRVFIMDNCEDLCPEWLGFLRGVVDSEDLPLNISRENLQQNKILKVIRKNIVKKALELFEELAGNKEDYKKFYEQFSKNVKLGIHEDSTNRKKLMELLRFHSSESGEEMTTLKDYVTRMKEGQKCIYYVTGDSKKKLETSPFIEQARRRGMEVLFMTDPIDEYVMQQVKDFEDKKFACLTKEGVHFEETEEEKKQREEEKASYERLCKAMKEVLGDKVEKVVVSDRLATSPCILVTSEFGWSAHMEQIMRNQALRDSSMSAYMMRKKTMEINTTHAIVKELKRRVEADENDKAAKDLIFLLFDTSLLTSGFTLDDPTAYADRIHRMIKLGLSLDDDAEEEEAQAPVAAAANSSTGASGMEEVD
Chain of PTR-1 (O76290 entry or part of it): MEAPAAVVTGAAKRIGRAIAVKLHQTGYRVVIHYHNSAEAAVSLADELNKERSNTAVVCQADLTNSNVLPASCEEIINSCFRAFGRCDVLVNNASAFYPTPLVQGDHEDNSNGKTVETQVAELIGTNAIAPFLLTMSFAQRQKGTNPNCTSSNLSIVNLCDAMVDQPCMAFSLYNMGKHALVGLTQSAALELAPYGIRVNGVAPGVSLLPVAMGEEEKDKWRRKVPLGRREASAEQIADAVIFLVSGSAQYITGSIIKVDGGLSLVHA
Chain of DHFR-TS (Trypanosoma brucei brucei, UniProt Q27783) (Q27783 whole entry): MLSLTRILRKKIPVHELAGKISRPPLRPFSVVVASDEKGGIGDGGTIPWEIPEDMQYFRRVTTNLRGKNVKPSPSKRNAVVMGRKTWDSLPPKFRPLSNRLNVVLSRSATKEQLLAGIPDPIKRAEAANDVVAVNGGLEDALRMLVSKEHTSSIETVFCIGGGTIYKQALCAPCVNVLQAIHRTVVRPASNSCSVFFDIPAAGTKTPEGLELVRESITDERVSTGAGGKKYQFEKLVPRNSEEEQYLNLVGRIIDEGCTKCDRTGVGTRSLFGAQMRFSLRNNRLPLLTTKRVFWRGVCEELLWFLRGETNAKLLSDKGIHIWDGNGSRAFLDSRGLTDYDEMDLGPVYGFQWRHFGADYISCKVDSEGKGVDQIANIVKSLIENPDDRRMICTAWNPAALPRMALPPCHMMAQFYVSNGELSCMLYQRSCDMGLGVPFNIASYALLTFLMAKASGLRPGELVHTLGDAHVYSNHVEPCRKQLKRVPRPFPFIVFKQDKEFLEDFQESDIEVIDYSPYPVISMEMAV

Row | SMILES | inhibition at 100 µM (DHFR-TS [1]) | fold change - vehicle control [3] | fold changes relative to vehicle control [5] | fold changes relative to vehicle control [6] | fold change vs vehicle control [12, 18] | fold change vs vehicle control [13, 19] | fold change vs vehicle control [14, 20] | fold change vs vehicle control [15, 21] | fold changes relative to vehicle control ([16]; HeLa, protein DYNC1LI1) | fold changes relative to vehicle control ([17]; protein RNPEP, HeLa) | further results
1 | Nc1nc2cccc(-c3ccccc3)c2n1Cc1ccc(Cl)c(Cl)c1 [compound 3] | < 50% | 0.91 | 0.91 | 1.05 |  |  |  |  |  |  | percentage of competition from bead binding (TB427.04.1870): 47%; percentage of competition from bead binding [2]: -23%; percentage of competition from bead binding (TB927.8.6760): 20%; percentage of competition from bead binding [4]: 10%; percentage of competition from bead binding [7]: 37%; inhibition at 100 µM (PTR-1): < 50%; inhibition at 100 µM (DHFR-TS [8]): < 50%; percentage of competition from bead binding [9]: 67%; percentage of competition from bead binding [10]: 51%; percentage of competition from bead binding [11]: 62%
2 | Nc1nc2[nH]cc(CCc3ccc(C(=O)N[C@@H](CCC(=O)O)C(=O)O)cc3)c2c(=O)[nH]1 [PTX, pemetrexed] |  |  |  |  |  |  |  |  |  |  | Ki (TbDHFR): 290 ± 20 nM; fold change vs vehicle control [12]: 0.76; fold change vs vehicle control [13]: 0.97; fold change vs vehicle control [14]: 1.11; fold change vs vehicle control [15]: 0.85; fold changes relative to vehicle control [16]: 0.81; fold changes relative to vehicle control [17]: 0.81
3 | Nc1nc2c(c(=O)[nH]1)N(C=O)C(CNc1ccc(C(=O)N[C@@H](CCC(=O)O)C(=O)O)cc1)CN2 (some centres unmarked) [LEU, leucovorin] |  |  |  |  | 1.64 | 0.93 | 1.22 | 1.22 | 0.9 | 0.93 | 
4 | CCCCCCOc1cccc(Cc2cnc(N)nc2N)c1 [compound 2] | < 50% | 0.86 | 1.08 | 0.91 |  |  |  |  |  |  | 
5 | NCCOCCOCC(=O)Nc1nc2ncc(CNc3ccc(C(=O)NC(CCC(=O)O)C(=O)O)cc3)nc2c(=O)[nH]1 (centres unmarked) [compound 6] |  |  |  |  | 1.41 | 0.97 | 1.2 | 0.98 | 0.9 | 0.99 | 
6 | CCCCCCOc1ccc(Cc2cnc(N)nc2N)cc1 [compound 1] | < 50% | 0.76 | 1.12 | 1 |  |  |  |  |  |  | 
7 | NCCCNc1ccc(C(=O)NC(CCC(=O)O)C(=O)O)cc1 (centres unmarked) [compound 7] |  |  |  |  | 1 | 1.05 | 1.08 | 0.88 | 0.88 | 0.74 | 
